Results on two molecules are retold here after US11639483B2, “Macrocyclic musk lactones and uses thereof” (PHYTO TECH CORP., priority 2021, dated 2023).

Data set [1] in a line: Appearance (solubility) of shampoo with musk, increased load. The class given is physicochemical.
Data set [2] in a line: Appearance of musk in laundry detergent base. The class given is physicochemical. The method, then:
Furthermore, musk lactone mixture A and other musks were also evaluated at two different loadings in laundry detergent base, as shown in Tables 38 and 39.

Data set [3] is described as follows: In use comparison of musk lactone mixture A with commercial musks in unperfumed laundry detergent, expert panel. Further details: species or system human. The settings on record: for DAMP HED / DAMP STR: damp towel; for DAMP HED / DRY TWL 1 DAY HED / DRY TWL 7 DAYS HED / DRY TWL 15 DAYS HED / JAR HED: hedonic; for DAMP STR / DRY TWL 1 DAY STR / DRY TWL 7 DAYS STR / DRY TWL 15 DAYS STR / JAR STR: strength; for DRY TWL 1 DAY HED / DRY TWL 1 DAY STR: dry towel 1 day; for DRY TWL 7 DAYS HED / DRY TWL 7 DAYS STR: dry towel 7 days; for DRY TWL 15 DAYS HED / DRY TWL 15 DAYS STR: dry towel 15 days; for JAR STR: jar (point of purchase). The method, then: Olfactive evaluations in use were performed by an expert panel. The range of materials evaluated was comprehensive, including musk products commercially available: Nitromusk, Polycyclic and Macrocyclic categories (Ambrettolide, Dihydro Ambrettolide, Scentolide, Muscone, Muscenone, Velvione, Musk Ambrette, Edenolide, Ethylene Brassylate, Galaxolide, Tonalide, Habanolide, Globanone, Macrolide, Oxalide T and others).
Evaluation samples were prepared using unperfumed laundry detergent (formulation example in Example 4, Table 10) at two different dosages: 10% Solution @ 0.8% (yielding 0.08% musk lactone mixture A) or 1.5% (yielding 0.15% musk lactone mixture A) driven by relative product performance in formulas and practical laboratory practices to execute the comparisons. The concentration of musk lactone mixture A in each evaluation was at the same concentration as the commercial musk.
The evaluations were performed in use stages: Jar (POP—Point of purchase), damp towel, Dry towel (1 day) and Storage Dry towel (7 days and 15 days). A five points scale was utilized, rating both strength and hedonic character: • Strength (STR) is rated as the overall scent power coming up from the substrate, due to physicochemical properties and commonly described as a combination of diffusion, bloom, body and or volume perceptions.

A short description of data set [4]: Fiber substantivity: odor strength on fabric treated with softener, 14 member-panel. The settings on record: 70% in isopropyl myristate dosed 0.25% w/w in softener; line dried 20 hours; 9 (very good) to 0 (very poor). Further details: species or system human. The method, then: Additionally, substantivity is evaluated olfactively by a panel after treating samples of substrate with a perfumed product, such as a fabric softener for cotton fabric or a shampoo for hair, containing the lactones described herein or other musk fragrances for comparison, according to standard procedures described below. Thus, the evaluation is essentially a relative odor intensity measurement. It is known that the perceived odor intensity of mixtures of perfume ingredients when evaluated as such is generally less than the sum of the perceived odors of the components. Thus, the perceived odor intensity of a 1:1 mixture of 2 of the components of the lactones described herein would be expected to be lower than the sum of the intensities of the separate components, i.e. in such mixtures odor suppression is generally found. On the contrary, the perceived odor intensity on substrate treated with the lactones described herein is at least equal to, but in most cases greater than the perceived intensity of substrate treated with equal amounts of the separate components.
Comparison of the fiber substantivity of single polycyclic musks and macrocyclic musks with musk mixtures is described herein. 70% Solutions in isopropyl myristate of the musks and musk mixtures to be tested are dosed at 0.25% w/w in a single Arquad fabric softener (GT 117B). The test is carried out by rinsing “6″×6” (weight: 16 g) cotton terry towel pieces at ambient temperature in a tergotometer according to the procedure below: • 3 g of fabric softener containing the test musk is added to 1 liter of water and agitated for one minute to disperse. The fabric piece is added and washed for 10 minutes with constant agitation at 100 rpm. On completion of the wash cycle, the pieces are hand wringed and line dried for 20 hours. • The cloths are assessed olfactively by a 14 member-panel. A 10-point scale is used running from 9 (very good) to 0 (very poor).

The next data set is described as follows: Odor strength on blotter. Set-up: species or system human. From the text: The results are presented below in Table 23a and Table 23b:
[5] abbreviates: 0.04% Musk in laundry detergent base.
Where [6] appears, read: 0.08% Musk in laundry detergent base.

In the case of `O=C1CCCCC/C=C\CCCCCCCCO1` [Ambrettolide], the “appearance of shampoo formula” value in data set [1] (0.3% musk with 0.2% fruity floral fragrance oil) is “cloudy”. Also, the “appearance of shampoo formula” value in data set [1] (lower level of ambrettolide (0.2%)) is “remaining clear”. For the same molecule, in data set [2] (setting [5]), the Appearance entry is recorded as “Very cloudy”. For the same molecule, the Appearance result in data set [2] (setting [6]) is given as “Phase separation”. For the same molecule, in data set [3] (10% IPM @0.8%), the “DAMP HED” value is reported as “+ ((+) directionally superior)”, the “DAMP STR” value is listed as “−− ((−−) Significantly inferior)”, the “DRY TWL 1 DAY HED” value is “−/− ((−) directionally inferior)” and the “DRY TWL 1 DAY STR” value is given as “−/− ((−) directionally inferior)”. Further, in data set [3] (10% IPM @0.8%), the “DRY TWL 7 DAYS HED” value was “−/− ((−) directionally inferior)”, the “DRY TWL 7 DAYS STR” value is on record as “−/− ((−) directionally inferior)”, the “DRY TWL 15 DAYS HED” value is recorded as “−/− ((−) directionally inferior)” and the “DRY TWL 15 DAYS STR” value is “−/− ((−) directionally inferior)”. In data set [3] (10% IPM @0.8%), the “JAR STR” value is “−− ((−−) Significantly inferior)” and the “JAR HED” value is reported as “− ((−) directionally inferior)”.

Take `CC1COCc2cc3c(cc21)C(C)(C)C(C)C3(C)C` (stereo not shown) [Galaxolide, galaxolide]: the “ODOR STRENGTH ON FABRIC TREATED WITH SOFTENER, Rating (10-point scale)” value in data set [4] amounted to 3.8. The “ODOR STRENGTH ON BLOTTER, Rating (10-point scale)” value in the data set “Odor strength on blotter” was determined as 5.8. In data set [2] (setting [5]), the Appearance entry is given as “Very cloudy”. For the same molecule, the Appearance entry in data set [2] (setting [6]) is “Phase separation”. Besides, in data set [3] (10% IPM @1.5%), the “DAMP HED” value is “−−/−− ((−−) Significantly inferior)”, the “DAMP STR” value is on record as “−−/−− ((−−) Significantly inferior)”, the “DRY TWL 1 DAY HED” value is given as “−−/−− ((−−) Significantly inferior)” and the “DRY TWL 1 DAY STR” value is “−−/−− ((−−) Significantly inferior)”. For the same molecule, in data set [3] (10% IPM @1.5%), the “DRY TWL 7 DAYS HED” value was “−−/−− ((−−) Significantly inferior)”, the “DRY TWL 7 DAYS STR” value is reported as “−−/−− ((−−) Significantly inferior)”, the “DRY TWL 15 DAYS HED” value is reported as “−−/−− ((−−) Significantly inferior)” and the “DRY TWL 15 DAYS STR” value was “−−/−− ((−−) Significantly inferior)”. In data set [3] (10% IPM @1.5%), the “JAR STR” value is given as “−−/−− ((−−) Significantly inferior)” and the “JAR HED” value is “−−/−− ((−−) Significantly inferior)”.
